Reference: patent publication US12257214B2, “Compositions and methods comprising deoxy-pentitols” (The Charlotte Mecklenburg Hospital Authority, priority 2021, dated 2025)

Columns and labels:
Assay type in all cases: cell-based
A-498 = assay: ATPlite cell IC50 screening, A-498; settings: Homo sapiens, A498; A-498, Renal cell carcinoma; ATPlite luminescence
Protocol: (§1) In brief, the cells were cultures in relevant medium and treated with a range of 9 doses of 2-deoxyribitol, from 10 mM, 5 mM, 2.5 mM, 1.25 mM, 0.62 mM, 0.31 mM, 0.08 mM, and 0.04 mM. Cells were diluted in the corresponding ATCC recommended medium and dispensed in a 384-well plate, depending on the cell line used, at a density of 100-6400 cells per well in 45 μl medium. For each used cell line the optimal cell density was used. The margins of the plate were filled with phosphate-buffered saline. Plated cells were incubated in a humidified atmosphere of 5% CO2 at 37° C. After 24 hours, 5 μl of compound dilution was added and plates were further incubated. At the end of experiment (t=end), 24 μl of ATPlite 1Step™ (PerkinElmer) solution was added to each well, and subsequently shaken for 2 minutes. After 10 minutes of incubation in the dark, the luminescence was recorded on an Envision multimode reader (PerkinElmer). IC50 was determined in comparison with the control samples. The cell lines tested and their corresponding disease model is indicated the left-most and middle columns, respectively. IC50 values are given in μM values in the right-most column. This screening was performed of a list of cancer cells to establish IC50 values for each of the cancer cell lines. This screening provides evidence for the potential of 2DR to treat many cancer types.

RKO = assay: ATPlite cell IC50 screening, RKO; settings: Homo sapiens, Colon carcinoma, ATPlite luminescence
Protocol: as §1

breast cancer T47D cells = assay: T47D cell growth
Protocol: (§2) Less than 50% of cells and 10% of cells were detected with the treatment of 10 mM and 50 mM 2-deoxyribitol, respectively.

BxPC-3 = assay: ATPlite cell IC50 screening, BxPC-3; settings: Homo sapiens; BxPC-3, Pancreatic ductal adenocarcinoma; ATPlite luminescence
Protocol: as §1

[1] = test system: prostate cancer cell line LNCaP; assay: LNCaP cell culture, growth and death (FIG. 5, FIG. 10)
Protocol: A dose dependent decrease in cell density was clearly detected with 2-deoxyribitol treatment, but not with ribitol treatment.
as §2

MCF7 cells [2] = assay: Anchorage independent growth, tumor colonies in agar gel (FIG. 3); settings: 20 days
Excerpt: Stars indicate a significant difference as compared to the control (p<0.01, n=3).
However, this effect was not related to the enhanced expression of glycosylation of α-DG.

PA-1 = assay: ATPlite cell IC50 screening, PA-1; settings: Homo sapiens; PA-1, Ovarian mixed germ cell tumor; ATPlite luminescence
Protocol: as §1

A-427 = assay: ATPlite cell IC50 screening, A-427; settings: Homo sapiens; A-427, Lung adenocarcinoma; ATPlite luminescence
Protocol: as §1

HCT 116 = assay: ATPlite cell IC50 screening, HCT 116; settings: Homo sapiens; HCT 116, Colon carcinoma; ATPlite luminescence
Protocol: as §1

J82 = assay: ATPlite cell IC50 screening, J82; settings: Homo sapiens; J82, Bladder carcinoma; ATPlite luminescence
Protocol: as §1

LS 174T = assay: ATPlite cell IC50 screening, LS 174T; settings: Homo sapiens, LS174T, Colon adenocarcinoma, ATPlite luminescence
Protocol: as §1

SU-DHL-1 = assay: ATPlite cell IC50 screening, SU-DHL-1; settings: Homo sapiens; SU-DHL-1, Anaplastic large cell lymphoma; ATPlite luminescence
Protocol: as §1

ES-2 = assay: ATPlite cell IC50 screening, ES-2; settings: Homo sapiens; ES-2, Ovarian clear cell adenocarcinoma; ATPlite luminescence
Protocol: as §1

DLD-1 = assay: ATPlite cell IC50 screening, DLD-1; settings: Homo sapiens; DLD-1, Colon adenocarcinoma; ATPlite luminescence
Protocol: as §1

LS411N = assay: ATPlite cell IC50 screening, LS411N; settings: Homo sapiens, LS-411N, Cecum adenocarcinoma, ATPlite luminescence
Protocol: as §1

MCF7 cells [3] = assay: Mammosphere formation (FIG. 4)
Protocol: Cells were also treated with Vitamin C (VitC) at a concentration of 50 μM for 5 days (5d) and then returned to normal medium (NM) for 6 days (d6), without (lower left panel) or with 2-deoxyribitol (Drug, lower right panel). The formation of cancer mammospheres, considered to be cancer stem cell-rich population, can be seen in culture without Drug treatment, and with Vitamin C treatment only. Drug treatment greatly reduces to eliminates the formation of cancer mammospheres.
To examine mammosphere formation, MCF7 cells were grown for 11 days with or without 2-deoxyribitol (drug) treatment (FIG. 4, top panels). In addition, MCF7 cells were treated with Vitamin C at the concentration of 50 μM for 5 days and then returned to normal medium (“NM”) for 6 days (FIG. 4, lower panels).

VA-ES-BJ = assay: ATPlite cell IC50 screening, VA-ES-BJ; settings: Epithelioid sarcoma, ATPlite luminescence
Protocol: as §1

RL = assay: ATPlite cell IC50 screening, RL; settings: Homo sapiens, Diffuse large B-cell lymphoma, ATPlite luminescence
Protocol: as §1

HT-1080 = assay: ATPlite cell IC50 screening, HT-1080; settings: Homo sapiens; HT-1080, Fibrosarcoma; ATPlite luminescence
Protocol: as §1

SUP-T1 = assay: ATPlite cell IC50 screening, SUP-T1; settings: Homo sapiens; SUP-T1, Childhood T lymphoblastic lymphoma; ATPlite luminescence
Protocol: as §1

T24 = assay: ATPlite cell IC50 screening, T24; settings: Homo sapiens, T-24; T24, Bladder carcinoma; ATPlite luminescence
Protocol: as §1

MIA PaCa-2 = assay: ATPlite cell IC50 screening, MIA PaCa-2; settings: Homo sapiens; MIA PaCa-2, Pancreatic ductal adenocarcinoma; ATPlite luminescence
Protocol: as §1

Jurkat E6.1 = assay: ATPlite cell IC50 screening, Jurkat E6.1; settings: Homo sapiens; Jurkat E6.1, Childhood T acute lymphoblastic leukemia; ATPlite luminescence
Protocol: as §1

JAR = assay: ATPlite cell IC50 screening, JAR; settings: Gestational choriocarcinoma, ATPlite luminescence
Protocol: as §1

SW948 = assay: ATPlite cell IC50 screening, SW948; settings: Homo sapiens; SW948, Colon adenocarcinoma; ATPlite luminescence
Protocol: as §1

HL-60 = assay: ATPlite cell IC50 screening, HL-60; settings: Homo sapiens; HL-60, Adult acute myeloid leukemia; ATPlite luminescence
Protocol: as §1

What does the source list for `OCC[C@H](O)[C@H](O)CO` [2-deoxyribitol]?
IC50 (A-498): 8.73 mM; IC50 (RKO): 5.77 mM; inhibiting cell growth (breast cancer T47D cells): had an effect on inhibiting cell growth; IC50 (BxPC-3): 7.81 mM; cells detected after treatment ([1]; 10 mM, 4 days): Less than 50%; number of cancer cells / anticancer effect ([1]; 10 mM, 7 days (FIG. 10)): markedly reduces the number of cancer cells; cells detected after treatment ([1]; 50 mM, 4 days): < 10%; effect on cell growth, death and cell density ([1]; 2-50 mM, 4 days): dose dependent inhibition in cell growth and death; cell colonies in agar culture (MCF7 cells [2]; 10 mM): absence of cell colony; anchorage independent growth (formation of tumor colonies within agar gel) (MCF7 cells [2]; 10 mM and 20 mM): significantly inhibited; IC50 (PA-1): 3.49 mM; IC50 (A-427): 3.95 mM; IC50 (HCT 116): 5.73 mM; IC50 (J82): 3.63 mM; IC50 (LS 174T): 2.52 mM; IC50 (SU-DHL-1): 2.65 mM; IC50 (ES-2): 8.74 mM; IC50 (DLD-1): 4.53 mM; IC50 (LS411N): 6.97 mM; number of mammospheres after Vitamin C pre-treatment (MCF7 cells [3]; MCF7, Vitamin C 50 μM 5 days, then 6 day treatment with 2-deoxyribitol): decreased dramatically; formation of mammospheres (MCF7 cells [3]; MCF7 grown 11 days, 5 mM): no spheres were seen; IC50 (VA-ES-BJ): 5.28 mM; IC50 (RL): 3.4 mM; IC50 (HT-1080): 4.39 mM; IC50 (SUP-T1): 3.06 mM; IC50 (T24): > 10 mM; IC50 (MIA PaCa-2): 4.87 mM; IC50 (Jurkat E6.1): 4.65 mM; IC50 (JAR): 3.6 mM; IC50 (SW948): 2.53 mM; IC50 (HL-60): 7.46 mM
